Results: patent US12290509B2, “Treatment of hepatitis delta virus infection” (priority 2014, dated 2025)
Where “and” joins values, the source holds several entries; their conditions need not be identical. Equal values may be shown once. Read-outs that look alike come from different tables or passages of the source.

Columns and labels:
[1] = Norvir package insert, cited from earlier work
[2] = tested on: hepatitis delta virus (HDV); format: in vivo, human
[3] = Serum ALT values in HDV patients; format: in vivo, human
[4] = Lonafarnib serum/plasma concentration in HDV patients (LC-MS/MS); format: in vivo, human; details: N=3
Text: As used herein, a serum lonafarnib level or concentration can be measured from a serum sample obtained from a subject periodically (such as weekly, biweekly, monthly or according to other schedules) and the levels during intervening periods can be extrapolated. […] In some embodiments the first measurement is made no earlier than one week after the initiation of oral therapy. Serum levels of lonafarnib can be measured using art-known methods, including radioimmunoassays, chromatographic assays, mass spectrometry and the like. In some embodiments of the invention, patient serum samples were extracted using a protein precipitation method (Acetonitrile).

[5] = cited from earlier work
[6] = formulated in crystalline forms; cited from earlier work
[7] = 200 mg BID lonafarnib; Hanrahan et al. 2009, List et al. 2002; cited from earlier work
[8] = Adverse events / tolerability in HDV patients; details: N=3
hepatitis B virus (HBV) = test: HBV DNA viral load and HBsAg in patients infected with HBV and HDV; details: 200 mg BID lonafarnib 12 weeks; baseline about 4 log IU/ml; below LOQ of 2 log IU/mL
Text: The term “HBV viral load” of a human serum or plasma sample refers to the number of copies of human HBV DNA in a given amount of human serum or plasma sample. HBV DNA may be detected and quantitated using real-time PCR. Commercial assays for quantitating HBV DNA are available. In the United States, Abbott offers the RealTime HBV assay, which is an in vitro PCR assay for the quantitation of HBV DNA in human serum or plasma. A CE certified kit for real-time PCR-based detection of HBV is commercially available from Analytik Jena, Germany (RoboGene® HBV DNA Quantification Kit 2.0).

## CC(C)c1nc(CN(C)C(=O)N[C@H](C(=O)N[C@@H](Cc2ccccc2)C[C@H](O)[C@H](Cc2ccccc2)NC(=O)OCc2cncs2)C(C)C)cs1 [ritonavir]
[1]; Fluticasone propionate, aqueous nasal spray
  increase in AUC of the co-administered primary drug: 350 fold
[1]; sidenafil
  increase in AUC of the co-administered primary drug: 11 fold
[1]; trimethoprim
  increase in AUC of the co-administered primary drug: 1.2 fold

## NC(=O)N1CCC(CC(=O)N2CCC([C@H]3c4ncc(Br)cc4CCc4cc(Cl)cc(Br)c43)CC2)CC1 [lonafarnib]
[2]; 200 mg BID lonafarnib, individual patients 4-6
  Δ log Baseline to Day 28: −1.85 log and −1.06 log and −1.98 log
[2]; 300 mg BID lonafarnib, individual patients 1-3
  Δ log Baseline to Day 28: −1.95 log and −1.97 log and −2.07 log
[3]; 200 mg BID lonafarnib
  ALT following ALT flare, patient A-001-5: ALT normalization
[3]; 300 mg BID lonafarnib
  ALT following ALT flare, patient A-001-1: ALT normalization
[4]; Day 7, LNF 200 mg BID
  Mean Serum Concentrations (lonafarnib): 2555 ng/mL
[4]; Day 7, LNF 300 mg BID
  Mean Serum Concentrations (lonafarnib): 2994 ng/mL
[4]; Day 14, LNF 200 mg BID
  Mean Serum Concentrations (lonafarnib): 2959 ng/mL
[4]; Day 14, LNF 300 mg BID
  Mean Serum Concentrations (lonafarnib): 1548 ng/mL
[4]; Day 28, LNF 200 mg BID
  Mean Serum Concentrations (lonafarnib): 2771 ng/mL
[4]; Day 28, LNF 300 mg BID
  Mean Serum Concentrations (lonafarnib): 1984 ng/mL
[4]; Day 56, LNF 200 mg BID
  Mean Serum Concentrations (lonafarnib): 1656 ng/mL
[4]; Day 56, LNF 300 mg BID
  Mean Serum Concentrations (lonafarnib): 2032 ng/mL
[4]; Day 84, LNF 200 mg BID
  Mean Serum Concentrations (lonafarnib): 443 ng/mL
[4]; Day 84, LNF 300 mg BID
  Mean Serum Concentrations (lonafarnib): 977 ng/mL
[5]; by pH
  stability in solution: stable at neutral pH but will hydrolyze in acidic or basic conditions
[5]
  water solubility: poorly water soluble
[5]; crystalline solid
  hygroscopicity: non-hygroscopic
[5]; solid state
  thermal stability: thermally stable
[6]
  bioavailability in animals: low and variable bioavailability
[7]
  tolerability in cancer patients: well tolerated
[8]; LNF 200 mg BID
  Anorexia, Grade 2: ✓
  Diarrhea, Grade 2: ✓
  Fatique, Grade 2: ✓
  Nausea, Grade 2: ✓
  Wt Loss, Grade 2: ✓
[8]; LNF 300 mg BID
  Anorexia, Grade 2: ✓
  Diarrhea, Grade 2: ✓
  Fatique, Grade 2: ✓
  Nausea, Grade 2: ✓
  Wt Loss, Grade 2: ✓
Hepatitis B virus (HBV)
  HBV VL (HBV DNA level) after suppression, patient A-001-5: approximately 1.5 log IU/ml
